Patent publication US8119661B2, “Piperidine derivatives and their use as muscarinic receptor modulators” (AstraZeneca AB, priority 2007, dated 2012)

Target: T1, cloned human M2 receptor (Homo sapiens, UniProt P08172)
T1 construct: purchased Perkin-Elmer RBHM2M; host or cells: CHO cell membranes
T1 sequence (P08172 1-466): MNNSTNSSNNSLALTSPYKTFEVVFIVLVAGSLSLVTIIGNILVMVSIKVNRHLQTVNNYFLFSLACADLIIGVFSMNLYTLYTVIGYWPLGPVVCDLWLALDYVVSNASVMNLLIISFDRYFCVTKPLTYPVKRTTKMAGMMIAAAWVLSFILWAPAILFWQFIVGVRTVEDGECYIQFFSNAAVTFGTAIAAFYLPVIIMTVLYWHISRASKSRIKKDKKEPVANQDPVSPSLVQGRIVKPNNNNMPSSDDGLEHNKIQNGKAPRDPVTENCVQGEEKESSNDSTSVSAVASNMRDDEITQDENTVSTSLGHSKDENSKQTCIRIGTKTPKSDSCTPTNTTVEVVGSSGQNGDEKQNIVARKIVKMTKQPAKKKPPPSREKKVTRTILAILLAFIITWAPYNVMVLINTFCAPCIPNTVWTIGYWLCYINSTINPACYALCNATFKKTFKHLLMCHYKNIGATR
Test: hM2 receptor GTPγS binding
Type: biochemical
Settings: CHO membranes expressing hM2, [35S]GTPγS binding
Procedure: Membranes produced from Chinese hamster ovary cells (CHO) expressing the cloned human M2 receptor (human Muscarinic receptor subtype 2, gene bank access NM_000739), are obtained from Perkin-Elmer (RBHM2M). The membranes are thawed at 37° C., passed 3 times through a 23-gauge blunt-end needle, diluted in the GTPγS binding buffer (50 mM Hepes, 20 mM NaOH, 100 mM NaCl, 1 mM EDTA, 5 mM MgCl2, pH 7.4, 100 μM DTT). The EC50, IC50 and Emax of the compounds of the invention are evaluated from 10-point dose-response curves (three fold concentration range) done in 60 μl in 384-well non-specific binding surface plate (Corning). Ten microliters from the dose-response curves plate (5× concentration) are transferred to another 384 well plate containing 25 μl of the following: 5 μg of hM2 membranes, 500 μg of Flashblue beads (Perkin-Elmer) and GDP 25 μM. An additional 15 μl containing 3.3× (60,000 dpm) of GTPγ^35S (0.4 nM final) are added to the wells resulting in a total well volume of 50 μl. Basal and maximal stimulated [^35S]GTPγS binding are determined in absence and presence of 30 μM final of acetylcholine agonist. The membranes/beads mix are pre-incubated for 15 minutes at room temperature with 25 μM GDP prior to distribution in plates (12.5 μM final). The reversal of acetylcholine-induced stimulation (2 μM final) of [^35S]GTPγS binding is used to assay the antagonist properties (IC50) of the compounds. The plates are incubated for 60 minutes at room temperature then centrifuged at 400 rpm for 5 minutes. The radioactivity (cpm) is counted in a Trilux (Perkin-Elmer).
Values of EC50, IC50 and Emax are obtained using sigmoidal fits of a non-linear curve-fitting program (XLfit version 4.2.2 Excel add-in version 4.2.2 build 18 math 1Q version 2.1.2 build 18) of percent stimulated [^35S]GTPγS binding vs. log(molar ligand). All pEC50 and pIC50 values are reported as arithmetic means±standard error of mean of ‘n’ independent experiments.

Question: With CC1(N2CCC(N3C(=O)N[C@H]4CCCC[C@@H]43)CC2)CCN(C(=O)OCCF)C1 (mixture of isomers) [Example 08, 2-fluoroethyl 3-[4-[(3aS,7aS)-2-oxo-3a,4,5,6,7,7a-hexahydro-3H-benzoimidazol-1-yl]-1-piperidyl]-3-methyl-pyrrolidine-1-carboxylate] as the compound, how does the EC50 read?
Answer: > 15000 nM

Question: How did the EC50 turn out when COC(=O)N1CCC(C)(N2CCC(N3C(=O)N[C@H]4CCCC[C@@H]43)CC2)C1 (mixture of isomers) [Example 10, Methyl 3-[4-[(3aS,7aS)-2-oxo-3a,4,5,6,7,7a-hexahydro-3H-benzoimidazol-1-yl]-1-piperidyl]-3-methyl-pyrrolidine-1-carboxylate] was run?
Answer: > 4000 nM

Question: With CCOC(=O)N1CCC(C)(N2CCC(N3C(=O)N[C@@H]4CCCC[C@H]43)CC2)C1 (mixture of isomers) [Example 11, Ethyl 3-[4-[(3aR,7aR)-2-oxo-3a,4,5,6,7,7a-hexahydro-3H-benzoimidazol-1-yl]-1-piperidyl]-3-methyl-pyrrolidine-1-carboxylate] as the compound, how does the EC50 read?
Answer: 2900 nM

Question: CC#CCOC(=O)N1CCC(C)(N2CCC(N3C(=O)N[C@H]4CCCC[C@@H]43)CC2)C1 (single isomer, unassigned) [Example 19] was tested. Which EC50 did it give?
Answer: 204 nM

Question: C#CCOC(=O)N1CCC(C)(N2CCC(N3C(=O)N[C@H]4CCCC[C@@H]43)CC2)CC1 [Example 17, prop-2-ynyl 4-[4-[(3aS,7aS)-2-oxo-3a,4,5,6,7,7a-hexahydro-3H-benzimidazol-1-yl]-1-piperidyl]-4-methyl-piperidine-1-carboxylate] was tested. Which EC50 did it give?
Answer: 48 nM
